# According to patent US20190054022A1, “FORMULATIONS OF SITE-SPECIFIC, MICROPARTICULATE COMPOSITIONS AND THEIR USE TO IMPROVE OUTCOME AFTER ANEURSYMAL SUBARACHNOID HEMORRHAGE” (Edge Therapeutics, Inc., priority 2016, published 2019):
# Read-outs that look alike come from different tables or passages of the source.
# Experiments:
# [1] = test system: patients with aneurysmal SAH; details: in vivo; cited from earlier work
# [2] = test system: patients with SAH secured by endovascular coiling; details: cited from earlier work; for patients with primary end point: placebo 27%; for patients with poor outcome (extended Glasgow Outcome Scale score <1=4): placebo 24%
# [3] = test system: patients with SAH secured by surgical clipping; details: cited from earlier work
# [4] = test system: double hemorrhage dog model of SAH; experiment: Mongrel dog SAH study: behavior, blood pressure, microthrombi, neuronal injury; type: in vivo, mongrel dogs; details: placebo microparticle plus oral nimodipine
# Procedure: Blood was injected into the cisterna magna using the same procedure as on day 1 except that microparticles were not injected. Angiography was repeated on days 8 and 15. The diameter of the basilar artery was measured at 5 equally spaced points by two blinded observers and the means averaged. Angiographic vasospasm was assessed by comparing the diameters of basilar arteries from Days 1, 8 and 15 and the time course and severity of angiographic vasospasm was determined. Dogs were weighed weekly and examined daily for 14 days, including behavior examination [Zhou C, Yamaguchi […], Zhang J H. Role of p53 and apoptosis in cerebral vasospasm after experimental subarachnoid hemorrhage. J Cereb Blood Flow Metab 2005; 25:572-82.]. […] Indirect blood pressure was measured in awake dogs daily for the first 14 days and weekly thereafter. Dogs were euthanized by an intravenous overdose of sodium pentobarbital. They were perfused through the heart with PBS followed by 10% neutral buffered formalin. […] Neuronal degeneration and apoptosis were scored by a pathologist blinded to the assigned group on a semi-quantitative scale as normal, minimal, mild, moderate or severe. Microthrombi present in three (3) 100×100 μm fields were counted.
# [5] = test system: double hemorrhage dog model of SAH; experiment: Mongrel dog SAH efficacy study: angiographic vasospasm (basilar artery diameter); type: in vivo, mongrel dogs
# Procedure: Dose translation from animal to human studies revisited. […] Dogs were euthanized on day 28 or 49. Dogs were anesthetized as described above, blood was collected and blood pressure, temperature, heart rate and oxygen saturation were monitored continuously while animals were under anesthesia. Blood gases were obtained before and after the injections. Cerebral angiography was performed through a 4F catheter inserted into the femoral artery and advanced under fluoroscopic guidance into the proximal portion of one vertebral artery using a guide wire. […] Images were captured digitally using identical exposure factors and magnification and an internal magnification standard was included in every angiogram. […] One half of the blood was injected, followed by injection of microparticles and then the remaining blood. The needle was withdrawn and the dogs were kept 30° head down for 15 minutes after which the femoral catheter was removed, the artery was ligated, and the incision was closed. For […] injection, the blood was injected into the cisterna magna and then the dog was placed prone in a stereotactic unit. […] Blood was injected into the cisterna magna using the same procedure as on day 1 except that microparticles were not injected. Angiography was repeated on days 8 and 15. The diameter of the basilar artery was measured at 5 equally spaced points by two blinded observers and the means averaged. Angiographic vasospasm was assessed by comparing the diameters of basilar arteries from Days 1, 8 and 15 and the time course and severity of angiographic vasospasm was determined. Dogs were weighed weekly and examined daily for 14 days, including behavior examination [Zhou C, Yamaguchi […], Zhang J H. Role of p53 and apoptosis in cerebral vasospasm after experimental subarachnoid hemorrhage. J Cereb Blood Flow Metab 2005; 25:572-82.]. […] Indirect blood pressure was measured in awake dogs daily for the first 14 days and weekly thereafter.
# [6] = oral, total single day dose of 360 mg; cited from earlier work
# [7] = Nimodipine release in vivo: plasma concentration after subcutaneous injection; design: species or system Wistar rats; details: 20 mg/kg or 200 mg/kg
# Procedure: A mobile phase of water:methyl alcohol:tetrahydrofuran was used (60:20:20) at 2 mL/min with detection at 235 nm.
# Blood samples were collected from two alternating cohorts of 2 or 3 animals/cohort in the microparticle formulation-injected groups. Collection was immediately before injection and then 1, 12, and 24 hours post dose, and on days 4, 8, 11, and 15. After the last blood sample collection interval, the surviving animals were euthanized via carbon dioxide inhalation. Animals were euthanized by cervical dislocation and the carcasses were discarded.
# [8] = Mongrel dog SAH study: plasma and CSF nimodipine concentration; type: in vivo, mongrel dogs; details: oral 5.2 mg/kg daily, day 3 (highest), n=7
# [9] = test system: K+ and Na+ currents, and L, P/Q and T-type calcium currents; details: cited from earlier work
# N-type calcium current = N-type calcium current (Homo sapiens, UniProt Q00975); details: at 300 nM to 500 nM; cited from earlier work
# Sequence of N-type calcium current (Q00975 whole entry): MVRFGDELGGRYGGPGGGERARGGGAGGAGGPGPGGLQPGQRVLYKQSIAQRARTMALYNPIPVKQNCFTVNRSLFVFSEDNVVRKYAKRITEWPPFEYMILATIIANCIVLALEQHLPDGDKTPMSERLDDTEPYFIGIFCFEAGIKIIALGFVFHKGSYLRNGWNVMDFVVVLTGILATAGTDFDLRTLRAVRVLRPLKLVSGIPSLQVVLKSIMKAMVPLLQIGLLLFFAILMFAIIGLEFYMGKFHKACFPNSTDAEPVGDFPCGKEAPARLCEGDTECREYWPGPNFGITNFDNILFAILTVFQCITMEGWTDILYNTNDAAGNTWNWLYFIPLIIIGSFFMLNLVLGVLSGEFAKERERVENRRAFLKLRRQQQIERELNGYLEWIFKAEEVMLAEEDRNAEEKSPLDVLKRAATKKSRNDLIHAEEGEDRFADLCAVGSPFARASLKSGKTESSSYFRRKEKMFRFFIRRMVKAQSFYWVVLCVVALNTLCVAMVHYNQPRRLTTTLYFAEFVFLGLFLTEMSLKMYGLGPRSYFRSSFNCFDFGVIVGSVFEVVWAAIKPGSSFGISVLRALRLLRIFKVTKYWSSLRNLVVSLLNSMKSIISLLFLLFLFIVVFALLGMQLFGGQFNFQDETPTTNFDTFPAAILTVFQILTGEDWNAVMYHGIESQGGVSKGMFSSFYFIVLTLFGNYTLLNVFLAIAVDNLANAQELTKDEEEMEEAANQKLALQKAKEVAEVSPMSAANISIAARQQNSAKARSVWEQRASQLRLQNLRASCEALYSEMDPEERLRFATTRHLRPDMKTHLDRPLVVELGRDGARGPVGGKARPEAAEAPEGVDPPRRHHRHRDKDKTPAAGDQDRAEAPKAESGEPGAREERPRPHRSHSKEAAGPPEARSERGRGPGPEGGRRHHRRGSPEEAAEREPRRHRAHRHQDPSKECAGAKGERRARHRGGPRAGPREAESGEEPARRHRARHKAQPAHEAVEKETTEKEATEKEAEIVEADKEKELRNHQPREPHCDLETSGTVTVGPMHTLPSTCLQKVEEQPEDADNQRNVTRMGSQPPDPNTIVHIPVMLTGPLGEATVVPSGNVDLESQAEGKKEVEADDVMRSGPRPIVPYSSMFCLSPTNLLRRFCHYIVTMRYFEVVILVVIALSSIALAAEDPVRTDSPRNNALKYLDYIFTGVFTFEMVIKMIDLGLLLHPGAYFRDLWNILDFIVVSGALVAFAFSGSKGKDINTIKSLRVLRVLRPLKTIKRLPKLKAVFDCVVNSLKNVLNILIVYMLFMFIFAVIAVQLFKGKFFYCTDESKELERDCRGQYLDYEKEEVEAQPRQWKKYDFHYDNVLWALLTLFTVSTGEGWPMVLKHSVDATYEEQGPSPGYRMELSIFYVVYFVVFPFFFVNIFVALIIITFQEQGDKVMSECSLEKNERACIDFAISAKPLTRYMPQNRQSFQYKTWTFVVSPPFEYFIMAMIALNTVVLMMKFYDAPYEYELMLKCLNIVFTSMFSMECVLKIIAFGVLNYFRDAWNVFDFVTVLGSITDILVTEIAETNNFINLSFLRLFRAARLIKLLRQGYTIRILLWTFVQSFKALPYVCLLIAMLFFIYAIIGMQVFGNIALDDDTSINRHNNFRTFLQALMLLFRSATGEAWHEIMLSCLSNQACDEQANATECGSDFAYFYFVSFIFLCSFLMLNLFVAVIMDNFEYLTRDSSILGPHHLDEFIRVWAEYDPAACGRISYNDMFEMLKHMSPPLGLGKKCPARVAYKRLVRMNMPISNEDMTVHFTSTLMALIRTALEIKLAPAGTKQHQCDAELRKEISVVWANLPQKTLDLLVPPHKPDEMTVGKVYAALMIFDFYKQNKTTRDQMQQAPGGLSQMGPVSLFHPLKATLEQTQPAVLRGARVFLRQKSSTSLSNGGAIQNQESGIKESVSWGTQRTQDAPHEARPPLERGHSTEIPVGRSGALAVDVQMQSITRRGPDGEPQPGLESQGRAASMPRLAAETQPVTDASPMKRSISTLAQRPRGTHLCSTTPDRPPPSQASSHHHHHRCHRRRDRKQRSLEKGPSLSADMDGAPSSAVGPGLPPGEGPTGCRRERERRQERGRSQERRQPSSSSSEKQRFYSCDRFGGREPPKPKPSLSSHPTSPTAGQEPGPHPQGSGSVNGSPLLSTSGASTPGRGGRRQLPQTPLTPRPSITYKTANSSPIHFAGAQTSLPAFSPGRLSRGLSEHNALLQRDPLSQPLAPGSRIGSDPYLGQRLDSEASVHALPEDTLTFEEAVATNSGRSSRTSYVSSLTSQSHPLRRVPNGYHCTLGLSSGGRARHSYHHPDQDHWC
# R-type calcium current = target: T1, R-type calcium current (Rattus norvegicus, UniProt Q07652); details: at 40 nM concentration; cited from earlier work
# T1 construct: R-type calcium current in the neurohypophysial nerve endings at 40 nM concentration; host or cells: neurohypophysial nerve endings
# T1 sequence (Q07652 whole entry): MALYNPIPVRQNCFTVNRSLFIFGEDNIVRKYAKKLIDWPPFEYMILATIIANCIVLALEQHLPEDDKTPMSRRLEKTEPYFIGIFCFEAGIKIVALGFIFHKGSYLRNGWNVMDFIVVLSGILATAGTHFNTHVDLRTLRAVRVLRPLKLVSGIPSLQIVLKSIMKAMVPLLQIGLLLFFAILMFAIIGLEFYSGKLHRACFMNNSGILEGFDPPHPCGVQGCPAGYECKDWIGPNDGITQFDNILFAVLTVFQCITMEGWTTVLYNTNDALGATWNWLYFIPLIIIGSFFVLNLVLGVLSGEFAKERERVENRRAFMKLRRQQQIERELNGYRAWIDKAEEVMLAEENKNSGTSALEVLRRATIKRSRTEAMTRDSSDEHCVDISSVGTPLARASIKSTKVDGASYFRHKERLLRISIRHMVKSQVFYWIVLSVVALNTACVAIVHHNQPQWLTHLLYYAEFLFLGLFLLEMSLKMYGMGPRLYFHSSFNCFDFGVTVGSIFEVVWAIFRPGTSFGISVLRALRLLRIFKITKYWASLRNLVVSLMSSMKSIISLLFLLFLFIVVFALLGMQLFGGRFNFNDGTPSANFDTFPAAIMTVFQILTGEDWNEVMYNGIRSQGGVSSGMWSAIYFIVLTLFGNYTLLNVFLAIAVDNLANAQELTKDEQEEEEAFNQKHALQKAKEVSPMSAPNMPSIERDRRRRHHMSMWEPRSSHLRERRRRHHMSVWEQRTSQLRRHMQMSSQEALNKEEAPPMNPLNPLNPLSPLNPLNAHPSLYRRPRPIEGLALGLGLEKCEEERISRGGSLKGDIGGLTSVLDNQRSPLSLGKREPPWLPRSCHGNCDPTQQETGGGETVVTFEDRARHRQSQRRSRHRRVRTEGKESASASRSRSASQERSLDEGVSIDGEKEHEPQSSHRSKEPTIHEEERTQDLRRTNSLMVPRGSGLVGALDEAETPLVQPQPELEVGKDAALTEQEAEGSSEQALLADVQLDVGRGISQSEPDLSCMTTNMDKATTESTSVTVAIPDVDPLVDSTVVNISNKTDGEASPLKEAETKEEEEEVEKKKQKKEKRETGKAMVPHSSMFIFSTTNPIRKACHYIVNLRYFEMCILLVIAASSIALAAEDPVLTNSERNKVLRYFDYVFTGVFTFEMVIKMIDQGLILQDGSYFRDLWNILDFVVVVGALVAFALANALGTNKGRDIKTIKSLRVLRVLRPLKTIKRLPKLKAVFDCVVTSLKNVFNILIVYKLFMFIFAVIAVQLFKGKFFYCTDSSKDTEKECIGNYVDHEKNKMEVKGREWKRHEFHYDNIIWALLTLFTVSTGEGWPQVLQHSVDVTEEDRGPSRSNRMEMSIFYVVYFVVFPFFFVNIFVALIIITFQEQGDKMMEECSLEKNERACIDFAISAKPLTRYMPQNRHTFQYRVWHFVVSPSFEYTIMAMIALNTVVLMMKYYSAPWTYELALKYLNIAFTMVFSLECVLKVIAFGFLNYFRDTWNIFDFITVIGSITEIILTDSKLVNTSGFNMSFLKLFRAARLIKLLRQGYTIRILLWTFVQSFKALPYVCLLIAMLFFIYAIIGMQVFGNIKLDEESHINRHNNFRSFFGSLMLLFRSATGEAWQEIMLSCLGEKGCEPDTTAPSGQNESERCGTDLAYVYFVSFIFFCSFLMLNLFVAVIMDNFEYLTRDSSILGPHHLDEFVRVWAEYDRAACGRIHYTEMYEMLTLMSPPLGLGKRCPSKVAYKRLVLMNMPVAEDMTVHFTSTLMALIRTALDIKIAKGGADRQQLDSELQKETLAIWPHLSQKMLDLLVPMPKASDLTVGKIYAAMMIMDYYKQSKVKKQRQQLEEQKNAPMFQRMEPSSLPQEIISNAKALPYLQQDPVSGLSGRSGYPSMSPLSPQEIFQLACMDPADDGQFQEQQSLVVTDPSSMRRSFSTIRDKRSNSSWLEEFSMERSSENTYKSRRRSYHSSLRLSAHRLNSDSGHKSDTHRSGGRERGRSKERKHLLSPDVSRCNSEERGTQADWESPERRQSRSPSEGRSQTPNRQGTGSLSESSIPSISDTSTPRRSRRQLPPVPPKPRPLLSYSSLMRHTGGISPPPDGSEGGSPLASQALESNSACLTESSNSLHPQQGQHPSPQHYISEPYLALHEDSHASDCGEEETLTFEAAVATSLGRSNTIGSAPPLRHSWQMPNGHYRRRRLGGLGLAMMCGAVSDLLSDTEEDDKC
# [10] = placebo microparticles + oral nimodipine 5.2 mg/kg daily for 21 days, n = 8
molecule,measurement,setting,value
COc1ccccc1Oc1c(NS(=O)(=O)c2ccc(C)cn2)nc(-c2ccnc(-c3nnn[nH]3)c2)nc1OCCO [clazosentan],incidence of angiographic vasospasm after aneurysmal SAH,[1],significantly reduced the incidence of angiographic vasospasm
same,patients with primary end point,"[2]; 5 mg/h, 47/194",24%
same,"odds ratio, primary end point","[2]; 5 mg/h, 95% CI 0.479-1.289, P=0.340",0.786
same,"odds ratio, poor outcome","[2]; 5 mg/h, 95% CI 0.546-1.544, P=0.748",0.918
same,patients with poor outcome (extended Glasgow Outcome Scale score <1=4),[2]; 5 mg/h,25%
same,patients with primary end point,"[2]; 15 mg/h, 28/188",15%
same,"odds ratio, primary end point","[2]; 15 mg/h, 95% CI 0.275-0.818, P=0.007",0.474
same,"odds ratio, poor outcome","[2]; 15 mg/h, 95% CI 0.802-2.227, P=0.266",1.337
same,post aneurysmal SAH vasospasm-related morbidity/all-cause mortality,[2]; 15 mg/h,significantly reduced
same,patients with poor outcome (extended Glasgow Outcome Scale score <1=4),[2]; 15 mg/h,28%
same,adverse events versus placebo,[2]; 5 or 15 mg/h,"Pulmonary complications, anemia, and hypotension were more common"
same,outcome (extended Glasgow Outcome Scale),[2]; 5 or 15 mg/h,neither dose improved outcome
same,"patients meeting primary composite endpoint (week 6): all-cause mortality, vasospasm-related new cerebral infarcts, delayed ischemic neurological deficit, rescue therapy","[3]; 5 mg/h up to 14 days, 161 of 764, placebo 25%",21%
same,"relative risk reduction, primary endpoint","[3]; 5 mg/h, 95% CI −4 to 33, p=0.10",17%
same,patients with poor functional outcome (GOSE score <1=4),"[3]; 5 mg/h, 224 patients, placebo 25%",29%
same,Mortality (week 12),"[3]; 5 mg/h, both groups",6%
same,adverse events versus placebo,[3]; 5 mg/h,"Lung complications, anaemia, and hypotension were more common"
same,effect on mortality and vasospasm-related morbidity or functional outcome,[3]; 5 mg/h,no significant effect
same,"relative risk reduction, poor functional outcome","[3]; 5 mg/h, −45 to 4, p=0.10",−18%
"COCCOC(=O)C1=C(C)NC(C)=C(C(=O)OC(C)C)C1c1cccc([N+](=O)[O-])c1 (centres unmarked) [nimodipine, Isopropyl 2-methoxyethyl 1,4-dihydro-2,6-dimethyl-4-(m-nitrophenyl)-3,5-pyridinedicarboxylate]",dogs with microthrombi,[4],one
same,"% change compared to day 1, Day 8",[5]; [10],(−27.9 ± 3.0) %
same,"% change compared to day 1, Day 15",[5]; [10],(−11.7 ± 4.5) %
same,"Angiographic diameter of basilar artery (mm), Day 8",[5]; [10],1.08 ± 0.12 mm
same,"Angiographic diameter of basilar artery (mm), Day 15",[5]; [10],1.32 ± 0.17 mm
same,"Angiographic diameter of basilar artery (mm), Day 1","[5]; placebo microparticles + oral nimodipine 5.2 mg/kg daily for 21 days, n = 8, baseline",1.51 ± 0.13 mm
same,basilar artery diameter 8 and 15 days after SAH versus day 1,"[5]; placebo microparticles with oral nimodipine, ANOVA P=0.001",significant reductions in basilar artery diameter
same,bioavailability,[6],about 28%
same,release of nimodipine over time in vivo (plasma),[7],Sustained release of nimodipine over time was observed
same,concentration of nimodipine in CSF,[8],1.56 ± 1.17 ng/mL
SNX-482,effect on other currents,[9],no effect is observed
same,block of N-type calcium current,N-type calcium current,30-50%
same,block of R-type calcium current,R-type calcium current,blocks
